Reference: patent US5502035A, “N-terminus modified analogs of LHRH” (Tap Holdings Inc., priority 1994, dated 1996)
Non-standard residues stand in square brackets, D forms with d. Residues, ends and D or L forms follow the SMILES beside them. Groups on a side chain read outwards from the residue. ξ: configuration not given here. *: point of attachment. Shikimoyl = O=C(C1=C[C@@H](O)[C@@H](O)[C@H](O)C1)*; ξTetrahydrofuran2carbonyl = O=C(C1CCCO1)*; dPhe(4-Cl) = N[C@H](Cc1ccc(Cl)cc1)C(=O)O; d2Nal = N[C@H](Cc1ccc2ccccc2c1)C(=O)O; Acetyl(3-pyridyl) = O=C(Cc1cccnc1)*; Lys(iPr) = CC(C)NCCCC[C@H](N)C(=O)O; NMeY = CN[C@@H](Cc1ccc(O)cc1)C(=O)O; NMeF = CN[C@@H](Cc1ccccc1)C(=O)O; dCit = NC(=O)NCCC[C@@H](N)C(=O)O; hArg = N=C(N)NCCCC[C@H](N)C(=O)O; d3Pal = N[C@H](Cc1cccnc1)C(=O)O; Isonicotinoyl = O=C(c1ccncc1)*; Nicotinoyl = O=C(c1cccnc1)*; azaGly = NNC(=O)O

Target: T1, LHRH (Rattus norvegicus, UniProt P30969)
T1 construct: endogenous in cells; host or cells: rat pituitary cells (own knowledge of the cited Haviv 1989 method)
T1 sequence (P30969 1-327): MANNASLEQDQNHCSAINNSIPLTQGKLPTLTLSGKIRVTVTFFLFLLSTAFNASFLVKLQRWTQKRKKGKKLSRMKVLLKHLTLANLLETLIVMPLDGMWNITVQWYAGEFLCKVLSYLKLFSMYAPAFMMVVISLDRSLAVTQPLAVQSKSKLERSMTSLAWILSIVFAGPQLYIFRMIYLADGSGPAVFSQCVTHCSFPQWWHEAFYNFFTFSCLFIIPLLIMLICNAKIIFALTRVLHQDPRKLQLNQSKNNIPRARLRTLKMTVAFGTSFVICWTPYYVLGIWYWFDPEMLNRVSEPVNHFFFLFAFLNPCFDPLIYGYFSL
Test: in vitro test for LHRH antagonist potency (pA2)
Type: cell-based
Conditions: negative logarithm of the antagonist concentration required to shift the response curve produced by the agonist leuprolide to two-fold higher concentration
Protocol: Representative compounds of the present invention were evaluated in an in vitro test for LHRH antagonist potency (pA2). The test employed the method detailed in F. Haviv, et al. J. Med. Chem., 32:2340-2344 (1989). The values of pA2 are the negative logarithms of the concentration of the particular antagonist test compound required to shift the response curve produced by the agonist leuprolide to two-fold higher concentration. (Leuprolide is the LHRH agonist having the structure 5-oxo-Pro^1 -His^2 -Trp^3 -Ser^4 -Tyr^5 -D-Leu^6 -Leu^7 -Arg^8 -Pro^9 -NHEt and is disclosed and claimed in U.S. Pat. No. 4,005,063.) Typically pA2 values of 9.5 or greater are indicative of good LHRH antagonist potency, with values of 10.0 or greater being preferred.

| Compound | Kb [nM] |
| --- | --- |
| CC(C)C[C@H](NC(=O)[C@@H](CCCCNC(=O)C1=C[C@@H](O)[C@@H](O)[C@H](O)C1)NC(=O)[C@H](Cc1ccc(O)cc1)N(C)C(=O)[C@H](CO)NC(=O)[C@@H](Cc1cccnc1)NC(=O)[C@@H](Cc1ccc(Cl)cc1)NC(=O)[C@@H](Cc1ccc2ccccc2c1)NC(=O)CNC(=O)C1=C[C@@H](O)[C@@H](O)[C@H](O)C1)C(=O)N[C@@H](CCCNC(=N)N)C(=O)N1CCC[C@H]1C(=O)N[C@H](C)C(N)=O [Example 14l, N-Shikimyl-Gly-D2Nal-D4ClPhe-D3Pal-Ser-NMeTyr-DLys(Shik)-Leu-Arg-Pro-DAlaNH2] (Shikimoyl-G[d2Nal][dPhe(4-Cl)][d3Pal]S[NMeY][dK](Shikimoyl)LRP[dA]-NH2) | 0.02 |
| CC(C)C[C@H](NC(=O)[C@@H](CCCCNC(=O)c1cccnc1)NC(=O)[C@H](Cc1ccc(O)cc1)N(C)C(=O)[C@H](CO)NC(=O)[C@@H](Cc1cccnc1)NC(=O)[C@@H](Cc1ccc(Cl)cc1)NC(=O)[C@@H](Cc1ccc2ccccc2c1)NC(=O)CNC(=O)[C@H]1CCCO1)C(=O)N[C@@H](CCCCNC(C)C)C(=O)N1CCC[C@H]1C(=O)N[C@H](C)C(N)=O [Example 5, N-(R) Tetrahydrofur-2-oyl-Gly-D2Nal-D4ClPhe-D3Pal-Ser-NMeTyr-DLys(Nicotinyl) -Le u-Lys(N-epsilon-Isopropyl)-Pro-DAlaNH2] | 0.0214 |
| CC(C)C[C@H](NC(=O)[C@@H](CCCNC(N)=O)NC(=O)[C@H](Cc1ccc(O)cc1)N(C)C(=O)[C@H](CO)NC(=O)[C@@H](Cc1cccnc1)NC(=O)[C@@H](Cc1ccc(Cl)cc1)NC(=O)[C@@H](Cc1ccc2ccccc2c1)NC(=O)Cc1cccnc1)C(=O)N[C@@H](CCCNC(=N)N)C(=O)N1CCC[C@H]1C(=O)N[C@H](C)C(N)=O [Example 78h, N-(3-Pyridylacetyl)-D2Nal-D4ClPhe-D3Pal-Ser-NMeTyr-DCit-Leu-Arg-Pro-DAlaNH2] ({Acetyl(3-pyridyl)}-[d2Nal][dPhe(4-Cl)][d3Pal]S[NMeY][dCit]LRP[dA]-NH2) | 0.0316 |
| CC(C)C[C@H](NC(=O)[C@@H](CCCCNC(=O)NNC(=O)c1cccnc1)NC(=O)[C@H](Cc1ccc(O)cc1)N(C)C(=O)[C@H](CO)NC(=O)[C@@H](Cc1cccnc1)NC(=O)[C@@H](Cc1ccc(Cl)cc1)NC(=O)[C@@H](Cc1ccc2ccccc2c1)NC(=O)C1=C[C@@H](O)[C@@H](O)[C@H](O)C1)C(=O)N[C@@H](CCCCNC(C)C)C(=O)N1CCC[C@H]1C(=O)N[C@H](C)C(N)=O [Example 30b, N-Shik-D2Nal-D4ClPhe-D3Pal-Ser-NMeTyr-DLys(Azagly-Nic)-Leu-Lys(Isp)-Pro-DAlaNH2] (Shikimoyl-[d2Nal][dPhe(4-Cl)][d3Pal]S[NMeY][dK]([azaGly-Nicotinoyl])L[Lys(iPr)]P[dA]-NH2) | 0.0295 |
| CC(C)C[C@H](NC(=O)[C@@H](CCCCNC(=O)c1cccnc1)NC(=O)[C@H](Cc1ccc(O)cc1)N(C)C(=O)[C@@H](CO)NC(=O)[C@@H](Cc1cccnc1)NC(=O)[C@@H](Cc1ccc(Cl)cc1)NC(=O)[C@@H](Cc1ccc2ccccc2c1)NC(=O)CNC(=O)[C@@H]1CCCO1)C(=O)N[C@@H](CCCCNC(C)C)C(=O)N1CCC[C@H]1C(=O)N[C@H](C)C(N)=O [Example 82, N (S)-2-Tetrahydrofuroyl-Gly-D2Nal-D4ClPhe-D3Pal-DSer-NMeTyr-DLys(N-epsilon-Nicotinyl) -Leu-Lys(N-epsilon-Isopropyl)-Pro-DAlaNH2] | 1.12 |
| CC(C)C[C@H](NC(=O)[C@@H](CCCNC(N)=O)NC(=O)[C@H](Cc1ccc(O)cc1)N(C)C(=O)[C@H](CO)NC(=O)[C@@H](Cc1cccnc1)NC(=O)[C@@H](Cc1ccc(Cl)cc1)NC(=O)[C@@H](Cc1ccc2ccccc2c1)NC(=O)CNC(=O)C1CCCO1)C(=O)N[C@@H](CCCNC(=N)N)C(=O)N1CCC[C@H]1C(=O)N[C@H](C)C(N)=O (stereo partly drawn) [Example 13a, N-(R,S)-Tetrahydro-Fur-2-oyl-Gly-D2Nal-D4ClPhe-D3Pal-Ser-NMeTyr-DCit-Leu-Arg-Pro-DAlaNH2] (ξTetrahydrofuran2carbonyl-G[d2Nal][dPhe(4-Cl)][d3Pal]S[NMeY][dCit]LRP[dA]-NH2) | 0.00447 |
| CC(C)C[C@H](NC(=O)[C@@H](CCCCNC(=O)C1=C[C@@H](O)[C@@H](O)[C@H](O)C1)NC(=O)[C@H](Cc1ccccc1)N(C)C(=O)[C@H](CO)NC(=O)[C@@H](Cc1cccnc1)NC(=O)[C@@H](Cc1ccc(Cl)cc1)NC(=O)[C@@H](Cc1ccc2ccccc2c1)NC(=O)CNC(=O)c1cccnc1)C(=O)N[C@@H](CCCCNC(=N)N)C(=O)N1CCC[C@H]1C(=O)N[C@H](C)C(N)=O [Example 26a, N-Nicotinyl-Gly-D2Nal-D4ClPhe-D3Pal-Ser-NMePhe-DLys(Shik)-Leu-Harg-Pro-DAlaNH2] (Nicotinoyl-G[d2Nal][dPhe(4-Cl)][d3Pal]S[NMeF][dK](Shikimoyl)L[hArg]P[dA]-NH2) | 0.0275 |
| CC(C)C[C@H](NC(=O)[C@@H](CCCCNC(=O)[C@@H](CO)NC(=O)c1cccnc1)NC(=O)[C@H](Cc1ccc(O)cc1)N(C)C(=O)[C@H](CO)NC(=O)[C@@H](Cc1cccnc1)NC(=O)[C@@H](Cc1ccc(Cl)cc1)NC(=O)[C@@H](Cc1ccc2ccccc2c1)NC(=O)CNC(=O)C1=C[C@@H](O)[C@@H](O)[C@H](O)C1)C(=O)N[C@@H](CCCNC(=N)N)C(=O)N1CCC[C@H]1C(=O)N[C@H](C)C(N)=O [Example 15c, N-Shikimyl-Gly-D2Nal-D4ClPhe-D3Pal-Ser-NMeTyr-DLys(DSer-Nic)-Leu-Arg-Pro-DAlaNH2] (Shikimoyl-G[d2Nal][dPhe(4-Cl)][d3Pal]S[NMeY][dK]([dS-Nicotinoyl])LRP[dA]-NH2) | 0.01 |
| CC(C)C[C@H](NC(=O)[C@@H](CCCCNC(=O)C1=C[C@@H](O)[C@@H](O)[C@H](O)C1)NC(=O)[C@H](Cc1ccc(O)cc1)N(C)C(=O)[C@H](CO)NC(=O)[C@@H](Cc1cccnc1)NC(=O)[C@@H](Cc1ccc(Cl)cc1)NC(=O)[C@@H](Cc1ccc2ccccc2c1)NC(=O)[C@@H](CCCCNC(=O)c1cccnc1)NC(=O)c1cccnc1)C(=O)N[C@@H](CCCNC(=N)N)C(=O)N1CCC[C@H]1C(=O)N[C@H](C)C(N)=O [Example 14g, N-Nicotinyl-DLys(Nic)-D2Nal-D4ClPhe-D3Pal-Ser-NMeTyr-DLys(Shik)-Leu-Arg-Pro-DAlaNH2] (Nicotinoyl-[dK](Nicotinoyl)[d2Nal][dPhe(4-Cl)][d3Pal]S[NMeY][dK](Shikimoyl)LRP[dA]-NH2) | 0.11 |
| CC(C)C[C@H](NC(=O)[C@@H](CCCCNC(=O)c1cccnc1)NC(=O)[C@H](Cc1ccc(O)cc1)N(C)C(=O)[C@H](CO)NC(=O)[C@@H](Cc1cccnc1)NC(=O)[C@@H](Cc1ccc(Cl)cc1)NC(=O)[C@@H](Cc1ccc2ccccc2c1)NC(=O)c1ccncc1)C(=O)N[C@@H](CCCCNC(C)C)C(=O)N1CCC[C@H]1C(=O)N[C@H](C)C(N)=O [Example 72g, N-Isonicotinyl-D2Nal-D4ClPhe-D3Pal-Ser-NMeTyr-DLys(Nic)-Leu-Lys(Isp)-Pro-DAlaNH2] (Isonicotinoyl-[d2Nal][dPhe(4-Cl)][d3Pal]S[NMeY][dK](Nicotinoyl)L[Lys(iPr)]P[dA]-NH2) | 0.02 |
